Assay results: patent US20020040052A1, “Method for neurite outgrowth” (priority 2000, published 2002)

Tested on: PC12 cells derived from adrenal medulla pheochromocytoma of rats
Assay: Neurite extension of PC12 cells: percentage of cells with extended neurites after culturing for 3 days
Format: cell-based, rat
Method: Next, PC12 cells derived from adrenal medulla pheochromocytoma of rats were seeded in a serum-free DMEM/F12 medium containing 5 μg/ml of transferrin, 5 μg/ml of insulin and 20 nM of progesterone (GIBCO Corp., hereinafter, referred to as “DMEM-TIP medium”) at 2.0×10^4 cells/well (flat-bottomed 24 well collagen coated plate, manufactured by IWAKI). Then, the cells were cultured overnight at 37° C. under 5% CO2. […]
After culturing for 3 days, for each well of the plate, microscopic observation was conducted with respect to the cells at 200 times magnification. The percentage of the cells with extended neurites (cells that have neurites longer than their diameter) to the total of more than 200 cells was calculated.

SMILES	Ratio of the cells with extended neurites (10 μM in DMEM-TIP medium)	Relative value of the ratio of the cells with extended neurites to control (Com. Ex. 1) (10 μM in DMEM-TIP medium)	Ratio of the cells with extended neurites (100 μM in DMEM-TIP medium)	Relative value of the ratio of the cells with extended neurites to control (Com. Ex. 1) (100 μM in DMEM-TIP medium)	Ratio of the cells with extended neurites (50 μM in DMEM-TIP medium)	Relative value of the ratio of the cells with extended neurites to control (Com. Ex. 1) (50 μM in DMEM-TIP medium)
COc1ccc(-c2cc(=O)c3c(OC)c(OC)c(OC)c(OC)c3o2)cc1 [tangeretin]	4.8%	1.4	12.2%	3.5		
COc1ccc(-c2cc(=O)c3c(OC)c(OC)c(OC)c(OC)c3o2)cc1OC [nobiletin]	8.7%	2.5	42.8%	12.2	16.6%	4.7
